PubChem BioAssay (NCI)
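Grown in 96-well plates, cells were treated for 48 hours with each compound at five concentrations. Insufficient inhibition: endpoint recorded as highest concentration tested. GI50 marks 50% less growth. TGI: concentration producing complete growth inhibition.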

Assays:
Assay in all cases: growth of human tumour cells (NCI), 48 h
SK-MEL-28 melanoma = system: SK-MEL-28 melanoma
HL-60(TB) leukemia = system: HL-60(TB) leukemia
HCT-15 colon = system: HCT-15 colon
MALME-3M melanoma = system: MALME-3M melanoma
CCRF-CEM leukemia = system: CCRF-CEM leukemia
RPMI-8226 leukemia = system: RPMI-8226 leukemia
OVCAR-8 ovarian = system: OVCAR-8 ovarian
A498 renal = system: A498 renal
UACC-257 melanoma = system: UACC-257 melanoma
NCI-H522 lung = system: NCI-H522 lung
SK-MEL-5 melanoma = system: SK-MEL-5 melanoma
HOP-92 NSCLC = system: HOP-92 NSCLC
786-0 renal = system: 786-0 renal
LOX IMVI melanoma = system: LOX IMVI melanoma
RXF 393 renal = system: RXF 393 renal
IGROV1 ovarian = system: IGROV1 ovarian
HCT-116 colon = system: HCT-116 colon
U251 CNS = system: U251 CNS
MCF7 breast = system: MCF7 breast
SF-539 CNS = system: SF-539 CNS
PC-3 prostate = system: PC-3 prostate
SF-295 CNS = system: SF-295 CNS
MDA-MB-435 = system: MDA-MB-435
SNB-75 CNS = system: SNB-75 CNS
SK-MEL-2 melanoma = system: SK-MEL-2 melanoma
SF-268 CNS = system: SF-268 CNS
NCI-H23 lung = system: NCI-H23 lung
TK-10 renal = system: TK-10 renal
SN12C renal = system: SN12C renal
CAKI-1 renal = system: CAKI-1 renal
A549 NSCLC = system: A549 NSCLC
OVCAR-3 ovarian = system: OVCAR-3 ovarian
SK-OV-3 ovarian = system: SK-OV-3 ovarian
T-47D breast = system: T-47D breast
SNB-19 CNS = system: SNB-19 CNS
NCI-H460 lung = system: NCI-H460 lung
KM12 colon = system: KM12 colon
NCI-H226 lung = system: NCI-H226 lung
OVCAR-4 ovarian = system: OVCAR-4 ovarian
MOLT-4 leukemia = system: MOLT-4 leukemia
HCC-2998 colon = system: HCC-2998 colon
UO-31 renal = system: UO-31 renal
BT-549 breast = system: BT-549 breast
M14 melanoma = system: M14 melanoma
SW-620 colon = system: SW-620 colon
HS 578T breast = system: HS 578T breast
MDA-MB-231 breast = system: MDA-MB-231 breast
UACC-62 melanoma = system: UACC-62 melanoma
EKVX NSCLC = system: EKVX NSCLC
SR leukemia = system: SR leukemia
HT29 colon = system: HT29 colon
MDA-MB-468 breast = system: MDA-MB-468 breast
ACHN renal = system: ACHN renal
DU-145 prostate = system: DU-145 prostate
COLO 205 colon = system: COLO 205 colon
HOP-62 NSCLC = system: HOP-62 NSCLC
OVCAR-5 ovarian = system: OVCAR-5 ovarian

Structure (SMILES): CN1CCc2c(sc3ncnc(N/N=C/c4ccc(Cl)cc4Cl)c23)C1
- GI50 (SK-MEL-28 melanoma): 2.04 µM
- TGI (SK-MEL-28 melanoma): 5.37 µM
- GI50 (HL-60(TB) leukemia): 2.12 µM
- TGI (HL-60(TB) leukemia): 6.11 µM
- GI50 (HCT-15 colon): 2.95 µM
- TGI (HCT-15 colon): 13.7 µM
- GI50 (MALME-3M melanoma): 1.9 µM
- TGI (MALME-3M melanoma): 3.94 µM
- GI50 (CCRF-CEM leukemia): 2.45 µM
- TGI (CCRF-CEM leukemia): 12.2 µM
- GI50 (RPMI-8226 leukemia): 2.51 µM
- TGI (RPMI-8226 leukemia): 11.8 µM
- GI50 (OVCAR-8 ovarian): 2.38 µM
- TGI (OVCAR-8 ovarian): 7.62 µM
- GI50 (A498 renal): 3.22 µM
- TGI (A498 renal): 12.3 µM
- GI50 (UACC-257 melanoma): 2.86 µM
- TGI (UACC-257 melanoma): 9.96 µM
- GI50 (NCI-H522 lung): 3.38 µM
- TGI (NCI-H522 lung): 13.3 µM
- GI50 (SK-MEL-5 melanoma): 1.66 µM
- TGI (SK-MEL-5 melanoma): 3.72 µM
- GI50 (HOP-92 NSCLC): 1.95 µM
- TGI (HOP-92 NSCLC): 5.96 µM
- GI50 (786-0 renal): 1.77 µM
- TGI (786-0 renal): 3.26 µM
- GI50 (LOX IMVI melanoma): 1.49 µM
- TGI (LOX IMVI melanoma): 2.93 µM
- GI50 (RXF 393 renal): 2.1 µM
- TGI (RXF 393 renal): 4.95 µM
- GI50 (IGROV1 ovarian): 6.89 µM
- TGI (IGROV1 ovarian): > 100 µM
- GI50 (HCT-116 colon): 3.04 µM
- TGI (HCT-116 colon): 11.4 µM
- GI50 (U251 CNS): 1.92 µM
- TGI (U251 CNS): 4.31 µM
- GI50 (MCF7 breast): 2.36 µM
- TGI (MCF7 breast): 14.7 µM
- GI50 (SF-539 CNS): 1.81 µM
- TGI (SF-539 CNS): 3.28 µM
- GI50 (PC-3 prostate): 3.96 µM
- TGI (PC-3 prostate): > 100 µM
- GI50 (SF-295 CNS): 2.3 µM
- TGI (SF-295 CNS): 8.18 µM
- GI50 (MDA-MB-435): 2.11 µM
- TGI (MDA-MB-435): 5.44 µM
- GI50 (SNB-75 CNS): 1.54 µM
- TGI (SNB-75 CNS): 4.2 µM
- GI50 (SK-MEL-2 melanoma): 3.59 µM
- TGI (SK-MEL-2 melanoma): 13.9 µM
- GI50 (SF-268 CNS): 4.64 µM
- TGI (SF-268 CNS): > 100 µM
- GI50 (NCI-H23 lung): 2.81 µM
- TGI (NCI-H23 lung): 10.7 µM
- GI50 (TK-10 renal): 2.53 µM
- TGI (TK-10 renal): 6.36 µM
- GI50 (SN12C renal): 2.43 µM
- TGI (SN12C renal): 6.7 µM
- GI50 (CAKI-1 renal): 1.8 µM
- TGI (CAKI-1 renal): 3.87 µM
- GI50 (A549 NSCLC): 3.73 µM
- TGI (A549 NSCLC): 16.9 µM
- GI50 (OVCAR-3 ovarian): 1.34 µM
- TGI (OVCAR-3 ovarian): 2.88 µM
- GI50 (SK-OV-3 ovarian): 3.04 µM
- TGI (SK-OV-3 ovarian): 12.5 µM
- GI50 (T-47D breast): 2.1 µM
- TGI (T-47D breast): 6.59 µM
- GI50 (SNB-19 CNS): 4.01 µM
- TGI (SNB-19 CNS): > 100 µM
- GI50 (NCI-H460 lung): 3.2 µM
- TGI (NCI-H460 lung): 13.3 µM
- GI50 (KM12 colon): 4.3 µM
- TGI (KM12 colon): 25.7 µM
- GI50 (NCI-H226 lung): 2.11 µM
- TGI (NCI-H226 lung): 8.21 µM
- GI50 (OVCAR-4 ovarian): 1.79 µM
- TGI (OVCAR-4 ovarian): 3.81 µM
- GI50 (MOLT-4 leukemia): 2.9 µM
- TGI (MOLT-4 leukemia): 18.4 µM
- GI50 (HCC-2998 colon): 3.69 µM
- TGI (HCC-2998 colon): 15.3 µM
- GI50 (UO-31 renal): 1.47 µM
- TGI (UO-31 renal): 2.83 µM
- GI50 (BT-549 breast): 3.97 µM
- TGI (BT-549 breast): 16 µM
- GI50 (M14 melanoma): 1.71 µM
- TGI (M14 melanoma): 3.45 µM
- GI50 (SW-620 colon): 1.91 µM
- TGI (SW-620 colon): 4.34 µM
- GI50 (HS 578T breast): 3.18 µM
- TGI (HS 578T breast): 27.3 µM
- GI50 (MDA-MB-231 breast): 1.93 µM
- TGI (MDA-MB-231 breast): 4.71 µM
- GI50 (UACC-62 melanoma): 1.7 µM
- TGI (UACC-62 melanoma): 3.67 µM
- GI50 (EKVX NSCLC): 10.8 µM
- TGI (EKVX NSCLC): > 100 µM
- GI50 (SR leukemia): 2.27 µM
- TGI (SR leukemia): 9.19 µM
- GI50 (HT29 colon): 2.13 µM
- TGI (HT29 colon): 4.91 µM
- GI50 (MDA-MB-468 breast): 1.52 µM
- TGI (MDA-MB-468 breast): 3.32 µM
- GI50 (ACHN renal): 1.88 µM
- TGI (ACHN renal): 3.97 µM
- GI50 (DU-145 prostate): 6.47 µM
- TGI (DU-145 prostate): > 100 µM
- GI50 (COLO 205 colon): 1.66 µM
- TGI (COLO 205 colon): 3.41 µM
- GI50 (HOP-62 NSCLC): 3.34 µM
- TGI (HOP-62 NSCLC): 16.9 µM
- GI50 (OVCAR-5 ovarian): 2.84 µM
- TGI (OVCAR-5 ovarian): 11.2 µM
